Reference: US4414205A, “Cell growth inhibitory substances” (University Patents, Inc., priority 1981, dated 1983)

Legend:
[1] = tested on: P388 leukemia; assay: Mouse tumor system P388 leukemia (murine P388 lymphocytic leukemia); assay type: in vivo
Description: (§1) A description of the antitumor tests, described herein, appears in the reference by R. I. Geran, N. H. Greenberg, M. M. MacDonald, A. M. Schumacher and B. J. Abbott, Cancer Chemother. Rep. Part 3, Vol. 3(2): 1-103 (1972).
(§2) ^a tumors were inoculated intraperitoneally (i.p.)
(§3) ^b compounds were administered i.p. everyday for 9 days starting on
(§4) the first day after tumor inoculation.
(§5) ^c Calculated from median survival times; Nos. in parentheses = No. o
(§6) cures/total No. of mice in group. Cured mice survive for at least 60 days

[2] = tested on: B16 melanoma; assay: Mouse tumor system B16 melanoma (NCI murine B16 melanoma test); assay type: in vivo
Description: as §1, §2, §3, §4, §5, §6

Dolastatin 1
life span in percent of controls ([1]; P388 leukemia inoculated i.p., compound i.p. every day for 9 days at optimal dose, from median survival times): 188% of controls
optimal dose ([1]; P388 leukemia, i.p. every day for 9 days starting first day after tumor inoculation): 11 μg/kg/injection
life extension ([1]; murine P388 lymphocytic leukemia, intraperitoneal doses of 11 μg/kg/day): 88%
No. of cures/total No. of mice in group ([2]; B16 melanoma i.p., optimal dose i.p. daily for 9 days, cured mice survive at least 60 days): 3/10
life span in percent of controls ([2]; B16 melanoma inoculated i.p., compound i.p. every day for 9 days at optimal dose, from median survival times): 240% of controls
optimal dose ([2]; B16 melanoma, i.p. every day for 9 days starting first day after tumor inoculation): 11 μg/kg/injection
curative response ([2]; murine B16 melanoma, intraperitoneal dose of 11 μg/kg/day): 30%
